From patent US20130131126A1, “DERIVATIVES OF 1,4-DIHYDROPYRIDINE POSSESSING ANTIVIRAL EFFICACY” (JSC Grindeks, priority 2010, published 2013)

tested on: influenza virus (H3N2); experiment: Antiviral efficacy against influenza virus on MDCK cell line in vitro; type: cell-based; details: MDCK cells infected with influenza virus (H3N2); compound present from 1 hour after infection until end of culture; over a wide concentration range

Compound	antiviral efficacy against influenza
COC(=O)C1C(C(=O)OCC(=O)[O-])=C(C)NC(C)=C1C(=O)OCC(=O)[O-].[Na+].[Na+] [disodium 2,6-dimethyl-1,4-dihydropyridine-4-methoxycarbonyl-3,5-bis-(carbonyloxyacetate)]	effective against influenza
CCOC(=O)C1=C(C)NC(C)=C(C(=O)OCC(=O)[O-])C1.[Na+] [sodium 2,6-dimethyl-3-ethoxycarbonyl-1,4-dihydropyridine-5-carbonyloxyacetate]	effective against influenza
COC(=O)C1=C(C)NC(C)=C(C(=O)OCC(=O)[O-])C1.[Na+] [sodium 2,6-dimethyl-3-methoxycarbonyl-1,4-dihydropyridine-5-carbonyloxyacetate]	effective against influenza
